Source: patent publication US9096639B2, “17-hydroxy-17-pentafluorethyl-estra-4,9(10)-dien-11-acyloxyalkylene phenyl derivatives, methods for the production thereof and use thereof for treating diseases” (Bayer Intellectual Property GmbH, priority 2009, dated 2015)
Where a name gives a salt, the structure may show the parent alone.

Key:
[1] = molecular target: T1, human progesterone receptor B (Homo sapiens, UniProt P06401); experiment: Progesterone receptor transactivation test in stably transfected SK-N-MC cells (PR-B, MMTV-LUC reporter); format: cell-based; settings: 0.1 nmol/l promegestone, 24 hours, read-out: PR-B IC50 (antagonistic potency)
T1 construct: expressed in transfected cells; host or cells: SK-N-MC human neuroblastoma cells, stably transfected with pRChPR-B-neo and pMMTV-LUC
T1 sequence (P06401 1-933): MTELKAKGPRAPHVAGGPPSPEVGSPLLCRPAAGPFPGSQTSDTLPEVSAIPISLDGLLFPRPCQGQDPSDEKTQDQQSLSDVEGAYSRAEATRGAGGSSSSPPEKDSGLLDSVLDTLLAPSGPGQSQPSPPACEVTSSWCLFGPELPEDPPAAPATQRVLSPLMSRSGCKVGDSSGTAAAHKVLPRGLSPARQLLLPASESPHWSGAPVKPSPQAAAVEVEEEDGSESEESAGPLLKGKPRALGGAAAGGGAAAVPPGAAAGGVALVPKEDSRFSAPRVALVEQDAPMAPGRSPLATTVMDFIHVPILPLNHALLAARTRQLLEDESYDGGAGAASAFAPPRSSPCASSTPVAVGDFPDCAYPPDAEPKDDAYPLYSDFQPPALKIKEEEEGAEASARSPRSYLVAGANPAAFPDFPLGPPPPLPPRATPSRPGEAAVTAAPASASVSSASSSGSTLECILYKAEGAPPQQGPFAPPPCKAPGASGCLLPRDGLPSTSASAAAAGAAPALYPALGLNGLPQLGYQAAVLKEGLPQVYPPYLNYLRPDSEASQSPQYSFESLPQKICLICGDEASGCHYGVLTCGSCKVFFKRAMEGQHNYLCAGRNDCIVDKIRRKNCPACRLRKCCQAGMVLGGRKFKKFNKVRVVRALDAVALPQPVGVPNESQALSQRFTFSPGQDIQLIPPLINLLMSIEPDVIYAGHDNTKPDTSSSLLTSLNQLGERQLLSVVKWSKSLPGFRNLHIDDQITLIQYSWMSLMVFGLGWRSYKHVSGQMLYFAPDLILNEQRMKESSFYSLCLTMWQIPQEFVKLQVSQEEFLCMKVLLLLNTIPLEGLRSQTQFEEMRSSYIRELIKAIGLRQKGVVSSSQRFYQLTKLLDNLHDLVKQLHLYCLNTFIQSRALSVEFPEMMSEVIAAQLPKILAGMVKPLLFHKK
Procedure: (§1) Progesterone receptor-antagonistic action in stable transfectants of human neuroblastoma cells (SK-N-MC cells) with the human progesterone A or progesterone B receptor and an MN-LUC reporter construct SK-N-MC cells (human neuroblastoma cells) which have been stably transfected with plasmids expressing the human progesterone receptor B (pRChPR-B-neo) or the human progesterone receptor A (pRChPR-A-neo) and a reporter construct (pMMTV-LUC) were incubated for 24 hours either in the absence (negative control) or in the presence of ascending amounts of the particular test compound (0.01 nmol/l, 0.1 nmol/l, 1 […], 100 nmol/l and […]), in order to determine the agonistic efficacy. As a positive control of the reporter gene induction, the cells were treated with the synthetic gestagen promegestone (0.01 nmol/l, 0.1 nmol/l, 1 nmol/l, 10 nmol/l, 100 nmol/l and […]). To determine the antagonistic activity, the cells were treated with 0.1 nmol/l promegestone and additionally with ascending amounts of the particular test compound (0.01 nmol/l, 0.1 nmol/l, 1 nmol/l, 10 nmol/l, 100 nmol/l and […]). The activity of the reporter gene LUC (LUC=luciferase) was determined in the cell lysates and measured as RLU (relative light units). All measurements are reported as % efficacy and as EC50 and IC50 concentrations.

[2] = Determination of hydrolytic stability (5:1 dioxane/buffer, HPLC); format: physicochemical; settings: 5:1 dioxane/buffer solution, test ended after 24 or 192 hours, read-out: Hydrolytic stability t1/2
Procedure: The ester to be analyzed was dissolved in each case in a 5:1 mixture of dioxane and buffer solution (pH 1.2, pH 5.0 or pH 8.0) at 23° C. At different times, the content of ester and hydrolysis products (8S,11R,13S,14S,1 7S)-17-hydroxy-11-[4-((R)-1-hydroxyethyl)phenyl]-13-methyl-17-pentafluoroethyl-1,2,6,7,8,11,12,13,14,15,16,17-dodecahydrocyclopenta[a]phenanthren-3-one and/or (8S,11R,13S,14S,17S)-17-hydroxy-11-[4-((S)-1-hydroxyethyl)phenyl]-1 3-methyl-17-pentafluoroethyl-1,2,6,7,8,11,12,13,14,15,16,17-dodecahydrocyclopenta[a]phenanthren-3-one was determined by HPLC. The test was ended after 24 hours or 192 hours.

[3] = molecular target: T2, human progesterone receptor A (Homo sapiens, UniProt P06401); experiment: Progesterone receptor transactivation test in stably transfected SK-N-MC cells (PR-A, MMTV-LUC reporter); format: cell-based; settings: 0.1 nmol/l promegestone, 24 hours, read-out: PR-A IC50 (antagonistic potency)
T2 construct: expressed in transfected cells; host or cells: SK-N-MC human neuroblastoma cells, stably transfected with pRChPR-A-neo and pMMTV-LUC
T2 sequence (P06401 1-769 isoform P06401-2): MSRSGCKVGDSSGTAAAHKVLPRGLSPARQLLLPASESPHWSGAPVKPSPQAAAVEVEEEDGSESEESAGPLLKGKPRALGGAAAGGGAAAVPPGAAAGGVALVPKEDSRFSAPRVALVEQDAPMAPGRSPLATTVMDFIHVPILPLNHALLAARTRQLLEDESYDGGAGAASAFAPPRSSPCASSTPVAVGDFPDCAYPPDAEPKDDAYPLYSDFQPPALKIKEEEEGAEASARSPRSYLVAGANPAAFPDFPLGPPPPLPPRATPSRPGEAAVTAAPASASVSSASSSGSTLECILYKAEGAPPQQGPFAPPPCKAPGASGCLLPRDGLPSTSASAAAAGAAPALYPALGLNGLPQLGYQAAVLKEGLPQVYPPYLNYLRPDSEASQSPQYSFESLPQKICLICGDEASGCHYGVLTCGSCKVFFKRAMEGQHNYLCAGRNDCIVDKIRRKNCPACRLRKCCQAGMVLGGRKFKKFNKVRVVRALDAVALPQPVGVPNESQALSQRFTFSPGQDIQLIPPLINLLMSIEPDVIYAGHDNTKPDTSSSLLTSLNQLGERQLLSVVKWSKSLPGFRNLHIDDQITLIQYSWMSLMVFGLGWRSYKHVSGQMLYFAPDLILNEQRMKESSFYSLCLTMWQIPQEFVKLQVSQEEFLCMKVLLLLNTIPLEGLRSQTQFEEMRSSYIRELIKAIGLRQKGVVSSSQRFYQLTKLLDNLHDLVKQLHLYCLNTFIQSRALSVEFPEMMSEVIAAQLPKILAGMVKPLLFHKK
Procedure: as §1

[4] = Determination of stability in rat plasma; format: in vitro ADME; settings: 37° C., read-out: Stability t1/2 in rat plasma (converted)
Procedure: (§2) A stock solution of 1.0 mg of the substance to be tested in a 9:1 mixture of acetonitrile and dimethyl sulphoxide was prepared. 20 μl of this stock solution were added at 37° C. to 1 ml of human plasma or rat plasma. To determine the content, 100 μl samples were each taken at different times. The enzyme activity was blocked by adding 300 μl of acetonitrile, the samples were centrifuged at 5000 rpm over 10 minutes and, in the supernatant, the content of ester and hydrolysis products (8S,11R,13S,14S,17S)-17-hydroxy-11-[4-((R)-1-hydroxyethyl)phenyl]-1 3-methyl-17-pentafluoroethyl-1,2,6,7,8,11,12,13,14,15,16,17-dodecahydrocyclopenta[a]phenanthren-3-one and/or (8S,11R,13S,14S,17S)-17-hydroxy-11-[4-((S)-1-hydroxyethyl)phenyl]-13-methyl-17-pentafluoroethyl-1,2,6,7,8,11,12,13,14,15,16,17-dodecahydrocyclopenta[a]phenanthrene-3-one was determined by HPLC. The concentration-time curves were used to calculate the degradation kinetics. The stability of the substance tested was reported as the half-life.

[5] = Determination of stability in human plasma; format: in vitro ADME
Procedure: as §2

[6] = 37° C., read-out: Stability t1/2 in human plasma (converted)
[7] = method of working example 19, summary statement in description, read-out: half-life in human plasma

IC50 [1] [nM]	half-life ([2]; pH = 1.2, 23° C.) [h]	half-life ([2]; pH = 8.0, 23° C.) [h]	IC50 [3] [nM]	half-life [4] [h]	half-life [5, 6] [h]	half-life [5, 7] [h]	Compound
0.1	> 192	> 192	0.1	1.2	131	> 100	CC(OC(=O)CCc1nccs1)c1ccc([C@H]2C[C@@]3(C)C(CC[C@@]3(O)C(F)(F)C(F)(F)F)C3CCC4=CC(=O)CCC4=C32)cc1 (mixture of isomers) [Example 15, 3-Thiazol-2-ylpropionic acid (RS)-1-[4-((8S,11R,13S,14S,17S)-17-hydroxy-13-methyl-3-oxo-17-pentafluoroethyl-2,3,6,7,8,11,12,13,14,15,16,17-dodecahydro-1H-cyclopenta[a]phenanthren-11-yl)phenyl]ethyl ester]
0.15	–	–	0.29	0.8	19.8	–	Cc1nccn1CCC(=O)O[C@H](C)c1ccc([C@H]2C[C@@]3(C)[C@@H](CC[C@@]3(O)C(F)(F)C(F)(F)F)[C@@H]3CCC4=CC(=O)CCC4=C32)cc1 (single isomer, unassigned) [Example 14B]

The remaining lines, values behind:

Compound	IC50 [1] [nM]	half-life ([2]; pH = 1.2, 23° C.) [h]	half-life ([2]; pH = 8.0, 23° C.) [h]	IC50 [3] [nM]	half-life [4] [h]	half-life [5, 6] [h]	half-life [5, 7] [h]
CC(OC(=O)[C@@H]1CCCN1C(=O)OC(C)(C)C)c1ccc([C@H]2C[C@@]3(C)C(CC[C@@]3(O)C(F)(F)C(F)(F)F)C3CCC4=CC(=O)CCC4=C32)cc1 (mixture of isomers) [Example 11, (S)-Pyrrolidine-1,2-dicarboxylic acid 1-tert-butyl ester 2-{(RS)-1-[4-((8S,11R,13S,14S,17S)-17-hydroxy-13-methyl-3-oxo-17-pentafluoroethyl-2,3,6,7,8,11,12,13,14,15,16,17-dodecahydro-1H-cyclopenta[a]phenanthren-11-yl)phenyl]ethyl}ester]	0.05	> 192	> 192	0.1	462	> 1000	> 100
CC(OC(=O)[C@@H]1CCCN1)c1ccc([C@H]2C[C@@]3(C)C(CC[C@@]3(O)C(F)(F)C(F)(F)F)C3CCC4=CC(=O)CCC4=C32)cc1 (mixture of isomers) [Example 13, (S)-Pyrrolidine-2-carboxylic acid (RS)-1-[4-((8S,11R,13S,14S,17S)-17-hydroxy-13-methyl-3-oxo-17-pentafluoroethyl-2,3,6,7,8,11,12,13,14,15,16,17-dodecahydro-1H-cyclopenta[a]phenanthren-11-yl)phenyl]ethyl ester hydrochloride]	0.74	> 192	> 192	0.27	5.3	9.7	–
Cc1nccn1CCC(=O)O[C@@H](C)c1ccc([C@H]2C[C@@]3(C)[C@@H](CC[C@@]3(O)C(F)(F)C(F)(F)F)[C@@H]3CCC4=CC(=O)CCC4=C32)cc1 (single isomer, unassigned) [Example 14A]	0.29	–	–	0.18	48.5	190	> 100
C=CCOC(=O)N[C@@H](C)C(=O)O[C@H](C)c1ccc([C@H]2C[C@@]3(C)[C@@H](CC[C@@]3(O)C(F)(F)C(F)(F)F)[C@@H]3CCC4=CC(=O)CCC4=C32)cc1 [Example 9, (S)-2-Allyloxycarbonylaminopropionic acid (R)-1-[4-((8S,11R,13S,14S,17S)-17-hydroxy-13-methyl-3-oxo-17-pentafluoroethyl-2,3,6,7,8,11,12,13,14,15,16,17-dodecahydro-1H-cyclopenta[a]phenanthren-11-yl)phenyl]ethyl ester]	0.09	–	–	0.01	0.3	231	> 100
C=CCOC(=O)N[C@@H](C)C(=O)O[C@@H](C)c1ccc([C@H]2C[C@@]3(C)[C@@H](CC[C@@]3(O)C(F)(F)C(F)(F)F)[C@@H]3CCC4=CC(=O)CCC4=C32)cc1 [Example 10, (S)-2-Allyloxycarbonylaminopropionic acid (S)-1-[4-((8S,11R,13S,14S,17S)-17-hydroxy-13-methyl-3-oxo-17-pentafluoroethyl-2,3,6,7,8,11,12,13,14,15,16,17-dodecahydro-1H-cyclopenta[a]phenanthren-11-yl)phenyl]ethy lester]	0.09	–	–	0.08	3.6	22.9	–
